Patent US20130045983A1, “HSP90 INHIBITORS FOR THERAPEUTIC TREATMENT” (Novartis AG, priority 2008, published 2013)

Assays:
SXF 1410 = test: Clonogenic assay, SXF 1410; format: cell-based; conditions: Homo sapiens, Sarcoma, Fibroblastic osteosarcoma, soft agar, read-out: IC50 (colony formation)
Procedure: (§1) The anticancer activity of (R)-2-amino-7-[2-(6-methoxy-pyridin-2-yl)-phenyl]-4-methyl-7,8-dihydro-6H-pyrido[4,3-d]pyrimidin-5-one is evaluated in 30 human tumor xenografts in vitro using a clonogenic assay. In this assay, human cells derived from cancer patients are evaluated for the capacity of (R)-2-amino-7-[2-(6-methoxy-pyridin-2-yl)-phenyl]-4-methyl-7,8-dihydro-6H-pyrido[4,3-d]pyrimidin-5-one to inhibit the formation of 3 dimensional colonies. […] The tumor xenografts which have never been cultured in cell culture plastic dishes are isolated from nude mice. Tumor cell suspensions are prepared and incubated in 24 well plates containing layers of soft agar. Under these conditions a special subpopulation of cells selectively grows to colonies. (R)-2-amino-7-[2-(6-methoxy-pyridin-2-yl)-phenyl]-4-methyl-7,8-dihydro-6H-pyrido[4,3-d]pyrimidin-5one is tested in 6 concentrations up to 1000 nM. The tumor test panel comprises 1 to 10 models of 12 different human tumor types, which were bladder cancer, colon, gastric, non small cell lung (adeno, squamous cell, and large cell), small cell lung, mammary, ovary, and prostate cancer, as well as leukemia, lymphoma, melanoma, and sarcoma. Antitumor effects are recorded as inhibition of colony formation in relation to untreated controls. […]

OVXF 899 = test: Clonogenic assay, OVXF 899; format: cell-based; conditions: Homo sapiens, Ovary, Pap. serous adenocarcinoma, soft agar, read-out: IC50 (colony formation)
Procedure: as §1

- IC50 (OVXF 899): > 100 nM
Structure (SMILES): COc1cccc(-c2ccccc2[C@H]2Cc3nc(N)nc(C)c3C(=O)N2)n1 [(R)-2-amino-7-[2-(6-methoxy-pyridin-2-yl)-phenyl]-4-methyl-7,8-dihydro-6H-pyrido[4,3-d]pyrimidin-5-one]
- IC50 (SXF 1410): > 1000 nM
